# Test results published in patent US20100160351A1, “PHARMACEUTICAL COMPOSITIONS AND METHODS FOR TREATING HYPERURICEMIA AND RELATED DISORDERS” (NUON THERAPEUTICS, INC., priority 2008, published 2010).
# Where “and” joins values, the source holds several entries; their conditions need not be identical. Equal entries are not always repeated.
# Columns and labels:
# [1] = test system: serum uric acid (sUA) levels; assay: Study A3006GT: phase 2 crossover, sUA in healthy subjects with screening sUA of at least 7.1 mg/dL; tranilast, febuxostat, combination; format: in vivo, human
# Method: Study A3006GT was a phase 2, randomized, double-blind, 3-period, 3-treatment crossover trial. The primary objective was to compare the effects of three treatments on serum uric acid (sUA) levels in healthy subjects with a screening sUA level of at least 7.1 mg/dL. The three treatments were: 300 mg QD tranilast and 40 mg QD febuxostat (C); 300 mg QD tranilast alone (T); 40 mg QD febuxostat alone (F).
# The study was conducted in 23 subjects. […] With two exceptions, every subject provided data for all three treatments. Subject 1001 completed only the first two periods of the study (C and F). […] Therefore, the period 3 data for subject 1024 are excluded from the analyses presented here.
# Two endpoints were considered: change from baseline to day 7 in sUA; and percent change from baseline to day 7 in sUA. For each endpoint, an analysis of variance (ANOVA) model for a three-period crossover trial was used. The model included effects for sequence, subject within sequence, treatment, and period. The sequence effect was tested using the subject within sequence mean square as the error term. Two pairwise comparisons between treatments were tested: C−F and C−T. In addition, the two-sided 95% confidence interval for each of these differences was computed.
# For each subject for which results were available from all three treatments, the difference between the change for C and the sum of the changes for F and T was computed. Although the true magnitude of the difference between these two values is not known, a conservative null hypothesis is that this difference should be equally likely to be greater than or less than zero. The sign test and the Wilcoxon signed rank test were used to test this null hypothesis.
# Using the change for each subject as the dependent variable, an analysis of variance (ANOVA) model for a three-period crossover trial was fit. This model included effects for sequence, subject within sequence, treatment, and period. Using the least squares estimates of the mean changes for each treatment, along with the 3×3 covariance matrix of these three estimates, the mean and SD of the difference between C and F+T was estimated, as follows.
# [2] = test system: monosodium urate (MSU) crystal-induced air pouch inflammation; assay: Air Pouch Model 3: MSU crystal air pouch, rodent model of gout; format: in vivo, male Sprague-Dawley rats; settings: 30 min before MSU; for Average Exudate Volume, Mean / Average Plasma Extravasation, OD620 nm, Mean / Total WBC in Sample, Mean / WBC in exudate, Mean: 4 h after MSU
# Method: The objective of this study was to evaluate the anti-inflammatory potency of Tranilast. This evaluation was carried out in male Sprague-Dawley rats in a rodent model of gout. The animals were injected subcutaneously with 20 ml of sterile air, followed three days later by a supplemental injection with 20 ml of sterile air. Six days after the initial sterile air injection, the rats were injected intravenously with Evan's Blue and pretreated for thirty minutes with oral administration of 25 mg/kg, 50 mg/kg, 100 mg/kg, 200 mg/kg, or 300 mg/kg tranilast. After the pretreatment period, the rats were injected with 150 mg of monosodium urate (MSU) crystals (10 mg/ml) into the air pouch. Four hours later, the air pouch was injected with 5 ml heparinized saline and the entire contents of the air pouch removed, recording the total volume. The air pouch contents were evaluated for plasma extravasation and total white blood cell (WBC) count.
# (§1) On day 0 the rats were anesthetized in a biological cabinet, the nape of the neck was cleansed with 70% isopropanol followed by iodine tincture (VEDCO). Twenty ml sterile (0.22 μm, Millipore, Cat. SLGSV255F) air was injected subcutaneously using a 23 G×2 inch needle fixed to a 20 ml syringe. The rats were returned to routine housing. No adverse reactions were observed.
# as §1, with “day 3” for “day 0”, “μm, Fisher Scientific,” for “μm, Millipore,”, “Cat. 09-720-3)” for “Cat. SLGSV255F)”
# On day 6 the rats were weighed (Mettler, Model PE3000, SN: F69474) and injected intravenously injected with 2 ml/kg Evans Blue. The animals were dosed orally with 0.5 ml/kg, 1 ml/kg, 2 ml/kg, 4 ml/kg tranilast, or 6 ml/kg tranilast or 6 ml/kg vehicle.
# Thirty minutes after test material administration, the rats were anesthetized and six groups (2-7) were injected into the air pouch with 15 ml MSU using a 19 G×2 inch needle fitted to a 20 ml syringe. Group 1 was injected with 15 ml saline. The rats were returned to their cages, no adverse affects were observed.
# Four hours after MSU/saline injection, the rats were anesthetized and 5 ml 10 U/ml heparinized saline was injected into the air pouch. The air pouch was gently massaged, the contents immediately removed using a 14 G×1 inch needle fitted to a 6 ml syringe, and the exudate volume recorded. An aliquot of the exudate was transferred to heparin-treated microtainer tubes (Becton Dickinson, Cat. 365958) for white blood cell (WBC) counting. The remainder of the exudate was centrifuged (Hermle Labrotechnik, Model Z200A, SN: 44060036), the supernatants removed and evaluated at OD620nm (Spectronic Unicam, Model 4000 1/4, SN: 3SGD003006) for plasma extravasation.
# [3] = end of 1-week treatment (day 7), C: 300 mg QD tranilast + 40 mg QD febuxostat, T: 300 mg QD, F: 40 mg QD
# [4] = individual subjects, per study period, end of the 1-week treatment period
smiles,measurement,setting,value
"COc1ccc(/C=C/C(=O)Nc2ccccc2C(=O)O)cc1OC [Tranilast, 2-[[3-(3,4-dimethoxyphenyl)-1-oxo-2-propenyl]amino]benzoic acid]","sUA Change from Baseline, Max",[1]; [3],-0.90 mg/dL
same,"sUA Change from Baseline, Mean",[1]; [3],-1.60 mg/dL
same,"sUA Change from Baseline, Median",[1]; [3],-1.40 mg/dL
same,"sUA Change from Baseline, Min",[1]; [3],-3.50 mg/dL
same,"sUA Percent Change from Baseline, Max",[1]; [3],−9.47%
same,"sUA Percent Change from Baseline, Mean",[1]; [3],−21.20%
same,"sUA Percent Change from Baseline, Median",[1]; [3],−18.61%
same,"sUA Percent Change from Baseline, Min",[1]; [3],−47.95%
same,sUA Change from baseline,[1]; [4],−1.4 mg/dL (2×) and −1.1 mg/dL (3×) and −2.1 mg/dL and −2.2 mg/dL (2×) and −1.7 mg/dL (3×) and −1.9 mg/dL and −0.9 mg/dL (2×) and −1.2 mg/dL (3×) and −1.0 mg/dL (2×) and −3.2 mg/dL and −3.5 mg/dL and −1.6 mg/dL
same,sUA Percent Change from baseline,[1]; [4],−17.50% and −14.86% and −30.43% and −27.85% and −16.42% and −26.98% and −22.09% and −13.64% and −9.47% and −26.15% and −16.00% and −14.29% (2×) and −10.87% and −30.14% and −14.46% and −35.56% and −47.95% and −20.51% and −19.72% and −15.38% and −21.79%
same,"Average Exudate Volume, Mean",[2]; 25 mg/kg oral,6.9 mL
same,"Average Plasma Extravasation, OD620 nm, Mean",[2]; 25 mg/kg oral,1.181
same,"Total WBC in Sample, Mean",[2]; 25 mg/kg oral,204170000
same,"WBC in exudate, Mean",[2]; 25 mg/kg oral,31260000 cells/ml
same,"Average Exudate Volume, Mean",[2]; 50 mg/kg oral,4.8 mL
same,"Average Plasma Extravasation, OD620 nm, Mean",[2]; 50 mg/kg oral,1.071
same,"Total WBC in Sample, Mean",[2]; 50 mg/kg oral,96948000
same,"WBC in exudate, Mean",[2]; 50 mg/kg oral,18900000 cells/ml
same,"Average Exudate Volume, Mean",[2]; 100 mg/kg oral,6.4 mL
same,"Average Plasma Extravasation, OD620 nm, Mean",[2]; 100 mg/kg oral,1.276
same,"Total WBC in Sample, Mean",[2]; 100 mg/kg oral,145408000
same,"WBC in exudate, Mean",[2]; 100 mg/kg oral,27440000 cells/ml
same,"Average Exudate Volume, Mean",[2]; 200 mg/kg oral,6.2 mL
same,"Average Plasma Extravasation, OD620 nm, Mean",[2]; 200 mg/kg oral,1.033
same,"Total WBC in Sample, Mean",[2]; 200 mg/kg oral,71692000
same,"WBC in exudate, Mean",[2]; 200 mg/kg oral,12000000 cells/ml
same,"Average Exudate Volume, Mean",[2]; 300 mg/kg oral,5.6 mL
same,"Average Plasma Extravasation, OD620 nm, Mean",[2]; 300 mg/kg oral,0.611
same,"Total WBC in Sample, Mean",[2]; 300 mg/kg oral,29232000
same,"WBC in exudate, Mean",[2]; 300 mg/kg oral,5880000 cells/ml
same,inhibition of plasma extravasation,[2]; highest dose 300 mg/kg oral,65%
same,inhibition of white blood cell infiltration,[2]; highest dose 300 mg/kg oral,90%
same,"effect on MSU-induced parameters (plasma extravasation, leukocyte infiltration)",[2]; oral 25-300 mg/kg,dose-dependent inhibition
